{"source": "patent US20100298141A1", "about": "“SUBSTITUTED PYRIDINE N-OXIDE HERBICIDES” (E. I. DU PONT DE NEMOURS AND COMPANY, priority 2007, published 2010)", "key": {"corn (ZEAMD) [1]": {"tested_on": "corn (ZEAMD)", "experiment": "Test J preemergence mixtures of Compound 2 with crop safeners", "type": "in vivo, Zea mays cv. ‘Pioneer 33G26’", "set-up": "key to ZEAMD Obsd. (observed effect): observed % herbicidal effect", "source_text": "Seeds of test plants consisting of winter wheat (TRZAW, Triticum aestivum) and corn (ZEAMD, Zea mays cv. ‘Pioneer 33G26’) were planted into a blend of loam soil and sand and treated preemergence with a directed soil spray using test chemicals formulated in a non-phytotoxic solvent mixture that included a surfactant. […] Balanced fertilizer was applied through the watering system. Treatments consisted of Compound 2 and the above mentioned safeners alone and in combination using a spray volume of 457 L/ha. Each treatment was replicated four times. […] A dash (-) response means no test result. Colby's Equation was used to determine the herbicidal effects expected from the mixtures. Colby's Equation (Colby, S. […] wherein • Pa+b is the percentage effect of the mixture expected from additive contribution of the individual components, • Pa is the observed percentage effect of the first active ingredient at the same use rate as in the mixture, and Pb is the observed percentage effect of the second active ingredient at the same use rate as in the mixture."}, "wild oat (AVEFA)": {"tested_on": "wild oat (AVEFA)", "experiment": "Test I preemergence mixtures of compound 2 with crop safeners", "type": "in vivo, Avena fatua", "conditions": "alone", "source_text": "(§1) Seeds of test plants consisting of winter wheat (TRZAW, Triticum aestivum), corn (ZEAMD, Zea mays cv. ‘Pioneer 33G26’), wild oat (AVEFA, Avena fatua), and Italian ryegrass (LOLMU, Lolium multiflorum) were planted into a blend of loam soil and sand and treated preemergence with a directed soil spray using test chemicals formulated in a non-phytotoxic solvent mixture that included a surfactant. Seeds of small-seeded species were planted about 1 cm deep; larger seeds were planted about 2.5 cm deep. […] Balanced fertilizer was applied through the watering system. Treatments consisted of Compound 2 and the above mentioned safeners alone and in combination using a spray volume of 457 L/ha. Each treatment was replicated four times. Treated plants and controls were maintained in a greenhouse for 14 to 21 days, after which time all species were compared to controls and visually evaluated. […] A dash (-) response means no test result. Colby's Equation was used to determine the herbicidal effects expected from the mixtures. Colby's Equation (Colby, S. […] Pa+b=Pa+Pb−(PaPb/100) wherein • Pa+b is the percentage effect of the mixture expected from additive contribution of the individual components, • Pa is the observed percentage effect of the first active ingredient at the same use rate as in the mixture, and • Pb is the observed percentage effect of the second active ingredient at the same use rate as in the mixture."}, "winter wheat (TRZAW)": {"tested_on": "winter wheat (TRZAW)", "experiment": "Test H preemergence mixtures of compound 2 with crop safeners", "type": "in vivo, Triticum aestivum", "set-up": "key to TRZAW Obsd. (observed effect): observed % effect, visually evaluated vs controls", "source_text": "(§2) Seeds of test plants consisting of winter wheat (TRZAW, Triticum aestivum), corn (ZEAMD, Zea mays cv. ‘Pioneer 33G26’), giant foxtail (SETFA, Setaria faberi), and Italian ryegrass (LOLMU, Lolium multiflorum) were planted into a blend of loam soil and sand and treated preemergence with a directed soil spray using test chemicals formulated in a non-phytotoxic solvent mixture that included a surfactant. Seeds of small-seeded species were planted about 1 cm deep; larger seeds were planted about 2.5 cm deep. […] Balanced fertilizer was applied through the watering system. Treatments consisted of Compound 2 and the above mentioned safeners alone and in combination using a spray volume of 457 L/ha. Each treatment was replicated four times. Treated plants and controls were maintained in a greenhouse for 14 to 21 days, after which time all species were compared to controls and visually evaluated. […] A dash (-) response means no test result. Colby's Equation was used to determine the herbicidal effects expected from the mixtures. Colby's Equation (Colby, S. […] wherein • Pa+b is the percentage effect of the mixture expected from additive contribution of the individual components, • Pa is the observed percentage effect of the first active ingredient at the same use rate as in the mixture, and • Pb is the observed percentage effect of the second active ingredient at the same use rate as in the mixture."}, "corn (ZEAMD) [2]": {"tested_on": "corn (ZEAMD)", "experiment": "Test I preemergence mixtures of compound 2 with crop safeners", "type": "in vivo, Zea mays cv. ‘Pioneer 33G26’", "conditions": "alone", "source_text": "as §1"}, "giant foxtail (SETFA)": {"tested_on": "giant foxtail (SETFA)", "experiment": "Test H preemergence mixtures of compound 2 with crop safeners", "type": "in vivo, Setaria faberi", "set-up": "key to SETFA Obsd. (observed effect): observed % effect, visually evaluated vs controls", "source_text": "as §2"}, "Italian ryegrass (LOLMU)": {"tested_on": "Italian ryegrass (LOLMU)", "experiment": "Test H preemergence mixtures of compound 2 with crop safeners", "type": "in vivo, Lolium multiflorum", "set-up": "key to LOLMU Obsd. (observed effect): observed % effect, visually evaluated vs controls", "source_text": "as §2"}, "[3]": {"conditions": "Cmpd 2 alone 125 g a.i./ha, scale 0 to 100, mean of four replicates"}}}
{"smiles": "Cc1cc[n+]([O-])c(S(=O)(=O)Cc2c(C(F)(F)F)nn(C)c2OC(F)F)c1", "note": "[Compound 2]", "values": [{"measurement": "ZEAMD Obsd. (observed effect)", "setting": "corn (ZEAMD) [1]; Test J, alone, 125 g a.i./ha", "result": 35}, {"measurement": "Observed effect (Obsd.), ZEAMD", "setting": "corn (ZEAMD) [1]; single active ingredient alone at 125 g a.i./ha", "result": 35, "unit": "%"}, {"measurement": "AVEFA Obsd. (observed effect)", "setting": "wild oat (AVEFA); 125 g a.i./ha", "result": 93}, {"measurement": "AVEFA Obsd. (observed effect)", "setting": "wild oat (AVEFA); 250 g a.i./ha", "result": 96}, {"measurement": "Plant response rating TRZAW Obsd.", "setting": "winter wheat (TRZAW); [3]", "result": 63}, {"measurement": "TRZAW Obsd. (observed effect)", "setting": "winter wheat (TRZAW); Test H, alone, 125 g a.i./ha", "result": 63}, {"measurement": "ZEAMD Obsd. (observed effect)", "setting": "corn (ZEAMD) [2]; 125 g a.i./ha", "result": 69}, {"measurement": "ZEAMD Obsd. (observed effect)", "setting": "corn (ZEAMD) [2]; 250 g a.i./ha", "result": 93}, {"measurement": "Plant response rating SETFA Obsd.", "setting": "giant foxtail (SETFA); [3]", "result": 100}, {"measurement": "SETFA Obsd. (observed effect)", "setting": "giant foxtail (SETFA); Test H, alone, 125 g a.i./ha", "result": 100}, {"measurement": "Plant response rating LOLMU Obsd.", "setting": "Italian ryegrass (LOLMU); [3]", "result": 53}, {"measurement": "LOLMU Obsd. (observed effect)", "setting": "Italian ryegrass (LOLMU); Test H, alone, 125 g a.i./ha", "result": 53}]}
